Results published in the supplement of paper PMC10307832.

Key:
Assay in all cases: relative viability (nuclei count vs DMSO), 5 days (fraction); higher = more cells survive
RAF265 + Bortezomib = compound: Cn1c(Nc2ccc(C(F)(F)F)cc2)nc2cc(Oc3ccnc(-c4ncc(C(F)(F)F)[nH]4)c3)ccc21 [RAF265] + CC(C)C[C@H](NC(=O)[C@H](Cc1ccccc1)NC(=O)c1cnccn1)B(O)O [Bortezomib] (partner 0.002 µM)
Summary of the method: (§1)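 Dosing by pin tool came one day after lung cancer cell lines were seeded in 1536-well plates, using either one drug or a fixed anchor-drug dose plus five library-drug doses (not always all listed) in √10 steps. After 5 days, nuclei were counted on 4× images. Relative viability is treated-well nuclei count divided by vehicle-well nuclei count, and values are medians of duplicate plates.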

Doramapimod + Vorinostat = compound: Cc1ccc(-n2nc(C(C)(C)C)cc2NC(=O)Nc2ccc(OCCN3CCOCC3)c3ccccc23)cc1 [Doramapimod] + O=C(CCCCCCC(=O)Nc1ccccc1)NO [Vorinostat] (partner 1 µM)
Summary of the method: as §1

Doramapimod + Decitabine = compound: Cc1ccc(-n2nc(C(C)(C)C)cc2NC(=O)Nc2ccc(OCCN3CCOCC3)c3ccccc23)cc1 [Doramapimod] + Nc1ncn([C@H]2C[C@H](O)[C@@H](CO)O2)c(=O)n1 [Decitabine] (partner 2 µM)
Summary of the method: as §1

IPA-3 + Luminespib = compound: C1=CC=C2C(=C1)C=CC(=C2SSC3=C(C=CC4=CC=CC=C43)O)O [IPA-3] + CCNC(=O)c1noc(-c2cc(C(C)C)c(O)cc2O)c1-c1ccc(CN2CCOCC2)cc1 [Luminespib] (partner 0.01 µM)
Summary of the method: as §1

| Cell Line | relative viability (RAF265 + Bortezomib; first compound 0.01 µM) | relative viability (RAF265 + Bortezomib; first compound 0.03162 µM) | relative viability (RAF265 + Bortezomib; first compound 0.1 µM) | relative viability (RAF265 + Bortezomib; first compound 0.3162 µM) | relative viability (RAF265 + Bortezomib; first compound 1 µM) | relative viability (Doramapimod + Vorinostat; first compound 0.02 µM) | relative viability (Doramapimod + Vorinostat; first compound 0.06325 µM) | relative viability (Doramapimod + Vorinostat; first compound 0.2 µM) | relative viability (Doramapimod + Vorinostat; first compound 0.6325 µM) | relative viability (Doramapimod + Vorinostat; first compound 2 µM) | relative viability (Doramapimod + Decitabine; first compound 0.02 µM) | relative viability (Doramapimod + Decitabine; first compound 0.06325 µM) | relative viability (Doramapimod + Decitabine; first compound 0.2 µM) | relative viability (Doramapimod + Decitabine; first compound 0.6325 µM) | relative viability (Doramapimod + Decitabine; first compound 2 µM) | relative viability (IPA-3 + Luminespib; first compound 0.2 µM) | relative viability (IPA-3 + Luminespib; first compound 0.6325 µM) | relative viability (IPA-3 + Luminespib; first compound 2 µM) | relative viability (IPA-3 + Luminespib; first compound 6.325 µM) | relative viability (IPA-3 + Luminespib; first compound 20 µM) |
| --- | --- | --- | --- | --- | --- | --- | --- | --- | --- | --- | --- | --- | --- | --- | --- | --- | --- | --- | --- | --- |
| HCC-366 | 1.11 | 1.02 | 1.06 | 1 | 0.985 | 0.329 | 0.421 | 0.44 | 0.42 | 0.32 | 0.373 | 0.276 | 0.315 | 0.37 | 0.28 |  |  |  |  |  |
| HCC-827 | 1.1 | 1.08 | 1.08 |  | 0.869 | 0.854 | 1.02 | 0.805 | 0.85 | 0.554 | 0.34 | 0.38 | 0.326 | 0.243 | 0.211 | 0.881 | 0.588 | 0.627 | 0.67 | 0.745 |
| HOP-62 | 1.15 |  | 1.05 | 0.674 | 0.788 | 0.653 | 0.714 | 0.721 | 0.606 | 0.623 | 0.267 | 0.268 | 0.176 | 0.208 | 0.211 | 1.12 | 0.919 | 0.963 | 0.855 | 1.11 |
| IA-LM | 0.77 |  | 0.805 | 0.593 | 0.548 | 0.988 | 0.868 | 0.86 |  | 0.745 |  |  |  |  |  |  |  |  |  |  |
| LC-2-ad | 0.959 | 0.998 | 0.927 | 0.668 | 0.452 | 0.753 | 0.748 | 0.742 | 0.745 | 0.764 | 0.828 | 0.776 | 0.793 | 0.854 | 0.768 | 1.21 | 1.06 | 1.07 | 1.04 | 1.05 |
| LCLC-97TM1 | 0.253 | 0.671 | 0.492 | 0.181 | 0.238 | 0.73 | 0.635 | 0.747 | 0.615 | 0.56 | 0.197 | 0.208 | 0.242 | 0.236 | 0.235 | 0.99 | 0.733 | 0.608 | 0.855 | 0.783 |
| LK-2 |  |  |  |  |  | 0.283 | 0.296 | 0.266 | 0.242 | 0.29 | 0.294 | 0.288 | 0.25 | 0.232 | 0.266 | 0.179 | 0.193 | 0.17 | 0.189 | 0.222 |
| NCI-H358 |  |  |  |  |  | 0.69 | 0.669 | 0.66 | 0.762 | 0.594 | 0.209 | 0.203 | 0.197 | 0.232 | 0.205 | 0.535 | 0.313 | 0.265 | 0.385 | 0.255 |
| NCI-H522 |  |  |  |  |  | 0.963 | 1.05 | 0.871 | 0.845 | 0.874 | 0.751 | 0.7 | 0.626 | 0.683 | 0.577 | 1.34 | 1.05 | 1.25 | 1.05 | 1.07 |
| NCI-H1299 | 1.04 | 1.02 | 1.05 | 0.969 | 0.741 |  |  |  |  |  |  |  |  |  |  |  |  |  |  |  |
| NCI-H1395 |  |  |  |  |  | 0.722 | 0.943 | 0.975 | 0.67 | 0.571 | 0.745 | 0.722 | 0.71 | 0.682 | 0.64 | 0.726 | 0.671 | 0.6 | 0.601 | 0.699 |
| NCI-H1563 | 0.994 | 0.836 | 0.851 | 0.69 | 0.803 |  |  |  |  |  |  |  |  |  |  | 0.514 | 0.526 | 0.532 | 0.512 | 0.437 |
| NCI-H1623 |  |  |  |  |  |  |  |  |  |  |  |  |  |  |  | 0.574 | 0.481 | 0.675 | 0.516 | 0.556 |
| NCI-H1648 |  |  |  |  |  | 0.348 | 0.405 | 0.52 | 0.709 | 0.224 | 0.465 | 0.544 | 0.452 | 0.402 | 0.389 |  |  |  |  |  |
| NCI-H1703 | 0.253 | 0.289 | 0.36 | 0.295 | 0.216 |  |  |  |  |  |  |  |  |  |  |  |  |  |  |  |
| NCI-H1792 | 0.985 | 0.889 | 0.905 | 0.837 | 0.574 |  |  |  |  |  | 0.462 | 0.532 | 0.505 | 0.571 | 0.47 | 0.475 | 0.529 | 0.418 | 0.38 | 0.615 |
| NCI-H1793 |  |  |  |  |  | 0.718 | 0.708 | 0.673 | 0.749 | 0.519 | 0.523 | 0.449 | 0.526 | 0.483 | 0.392 | 0.192 | 0.381 | 0.14 | 0.462 | 0.16 |
| NCI-H1944 |  |  |  |  |  | 0.504 | 0.616 | 0.575 | 0.665 | 0.611 | 0.459 | 0.491 | 0.447 | 0.423 | 0.414 | 0.914 | 0.651 | 0.891 | 0.827 | 0.937 |
| NCI-H2170 |  |  |  |  |  | 0.737 | 0.882 | 0.704 | 0.844 | 0.814 | 0.472 | 0.459 | 0.483 | 0.518 | 0.469 | 0.691 | 0.574 | 0.772 | 0.748 | 0.683 |
| NCI-H2228 | 0.968 | 0.82 | 0.887 | 0.412 | 0.42 | 0.588 | 0.91 | 0.496 | 0.894 | 0.516 |  |  |  |  |  | 0.155 | 0.181 | 0.183 | 0.175 | 0.145 |
| NCI-H2342 |  |  |  |  |  | 0.761 | 0.747 | 0.806 | 0.849 | 0.829 | 0.653 | 0.807 | 0.686 | 0.673 | 0.74 | 0.701 | 0.677 | 0.747 | 0.802 | 0.765 |
| SK-MES-1 |  |  |  |  |  | 1.21 | 1.09 | 1.07 | 1.12 | 1.11 | 0.329 | 0.355 | 0.356 | 0.424 | 0.315 | 0.753 | 0.691 | 0.831 | 0.782 | 0.808 |
| SW 900 |  |  |  |  |  | 0.571 | 0.514 | 0.546 | 0.584 | 0.436 | 0.355 | 0.439 | 0.36 | 0.405 | 0.437 | 0.211 | 0.184 | 0.165 | 0.181 | 0.212 |
